From patent publication US10168342B2, “Lipid probes and uses thereof” (THE SCRIPPS RESEARCH INSTITUTE, priority 2015, dated 2019)
Like-named read-outs stand apart in the source and are kept apart here.

Key:
[1] = target: T1, AEA-DA lipid probe targets in Neuro2a cells (Mus musculus, UniProt P22315)
T1 sequence (P22315 54-422): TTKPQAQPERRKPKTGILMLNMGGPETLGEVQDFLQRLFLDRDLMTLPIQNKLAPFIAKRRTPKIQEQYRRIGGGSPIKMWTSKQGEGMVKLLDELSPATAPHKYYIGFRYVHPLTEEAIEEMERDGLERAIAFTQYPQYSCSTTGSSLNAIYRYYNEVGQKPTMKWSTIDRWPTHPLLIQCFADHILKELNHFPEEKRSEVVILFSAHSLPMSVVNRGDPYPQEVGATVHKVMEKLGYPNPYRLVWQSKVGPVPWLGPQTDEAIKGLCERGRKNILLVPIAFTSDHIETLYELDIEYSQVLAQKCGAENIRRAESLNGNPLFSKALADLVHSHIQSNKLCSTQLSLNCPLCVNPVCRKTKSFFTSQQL

[2] = target: T2, AEA-DA lipid probe targets in Neuro2a cells (Mus musculus, UniProt Q8BJ71)
T2 sequence (Q8BJ71 1-819): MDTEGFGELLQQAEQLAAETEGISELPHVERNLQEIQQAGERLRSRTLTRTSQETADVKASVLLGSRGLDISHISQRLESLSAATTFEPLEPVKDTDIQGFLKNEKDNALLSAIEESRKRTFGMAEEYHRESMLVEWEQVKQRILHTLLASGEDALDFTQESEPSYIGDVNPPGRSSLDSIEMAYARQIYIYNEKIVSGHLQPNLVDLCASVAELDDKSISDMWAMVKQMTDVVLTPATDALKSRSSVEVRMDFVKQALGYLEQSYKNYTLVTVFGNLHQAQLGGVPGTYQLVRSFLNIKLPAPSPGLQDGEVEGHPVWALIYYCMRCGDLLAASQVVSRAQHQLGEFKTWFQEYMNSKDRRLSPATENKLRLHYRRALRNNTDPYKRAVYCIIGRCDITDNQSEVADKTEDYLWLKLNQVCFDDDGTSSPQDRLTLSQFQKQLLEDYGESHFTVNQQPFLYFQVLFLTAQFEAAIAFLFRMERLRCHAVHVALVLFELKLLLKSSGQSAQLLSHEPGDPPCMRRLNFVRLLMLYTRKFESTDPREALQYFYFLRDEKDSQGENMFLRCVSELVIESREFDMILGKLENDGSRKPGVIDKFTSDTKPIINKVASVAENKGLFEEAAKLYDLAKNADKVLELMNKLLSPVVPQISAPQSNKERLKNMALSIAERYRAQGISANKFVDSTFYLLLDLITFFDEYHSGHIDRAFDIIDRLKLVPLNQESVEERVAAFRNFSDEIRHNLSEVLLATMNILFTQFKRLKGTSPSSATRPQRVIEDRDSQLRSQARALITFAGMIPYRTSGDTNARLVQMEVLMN

[3] = target: T3, AEA-DA lipid probe targets in Neuro2a cells (Mus musculus, UniProt Q9CRD0)
T3 sequence (Q9CRD0 1-247): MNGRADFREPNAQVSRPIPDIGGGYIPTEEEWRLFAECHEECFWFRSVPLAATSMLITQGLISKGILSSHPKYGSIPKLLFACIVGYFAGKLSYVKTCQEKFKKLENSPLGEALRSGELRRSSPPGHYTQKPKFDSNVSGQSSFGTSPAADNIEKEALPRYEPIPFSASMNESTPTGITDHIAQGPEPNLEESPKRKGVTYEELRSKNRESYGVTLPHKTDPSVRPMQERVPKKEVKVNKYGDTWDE

[4] = target: AEA-DA lipid probe targets in Neuro2a cells (Mus musculus, UniProt Q9Z0V7)
[5] = target: T4, AEA-DA lipid probe targets in Neuro2a cells (Mus musculus, UniProt Q99P72)
T4 sequence (Q99P72 1-1162): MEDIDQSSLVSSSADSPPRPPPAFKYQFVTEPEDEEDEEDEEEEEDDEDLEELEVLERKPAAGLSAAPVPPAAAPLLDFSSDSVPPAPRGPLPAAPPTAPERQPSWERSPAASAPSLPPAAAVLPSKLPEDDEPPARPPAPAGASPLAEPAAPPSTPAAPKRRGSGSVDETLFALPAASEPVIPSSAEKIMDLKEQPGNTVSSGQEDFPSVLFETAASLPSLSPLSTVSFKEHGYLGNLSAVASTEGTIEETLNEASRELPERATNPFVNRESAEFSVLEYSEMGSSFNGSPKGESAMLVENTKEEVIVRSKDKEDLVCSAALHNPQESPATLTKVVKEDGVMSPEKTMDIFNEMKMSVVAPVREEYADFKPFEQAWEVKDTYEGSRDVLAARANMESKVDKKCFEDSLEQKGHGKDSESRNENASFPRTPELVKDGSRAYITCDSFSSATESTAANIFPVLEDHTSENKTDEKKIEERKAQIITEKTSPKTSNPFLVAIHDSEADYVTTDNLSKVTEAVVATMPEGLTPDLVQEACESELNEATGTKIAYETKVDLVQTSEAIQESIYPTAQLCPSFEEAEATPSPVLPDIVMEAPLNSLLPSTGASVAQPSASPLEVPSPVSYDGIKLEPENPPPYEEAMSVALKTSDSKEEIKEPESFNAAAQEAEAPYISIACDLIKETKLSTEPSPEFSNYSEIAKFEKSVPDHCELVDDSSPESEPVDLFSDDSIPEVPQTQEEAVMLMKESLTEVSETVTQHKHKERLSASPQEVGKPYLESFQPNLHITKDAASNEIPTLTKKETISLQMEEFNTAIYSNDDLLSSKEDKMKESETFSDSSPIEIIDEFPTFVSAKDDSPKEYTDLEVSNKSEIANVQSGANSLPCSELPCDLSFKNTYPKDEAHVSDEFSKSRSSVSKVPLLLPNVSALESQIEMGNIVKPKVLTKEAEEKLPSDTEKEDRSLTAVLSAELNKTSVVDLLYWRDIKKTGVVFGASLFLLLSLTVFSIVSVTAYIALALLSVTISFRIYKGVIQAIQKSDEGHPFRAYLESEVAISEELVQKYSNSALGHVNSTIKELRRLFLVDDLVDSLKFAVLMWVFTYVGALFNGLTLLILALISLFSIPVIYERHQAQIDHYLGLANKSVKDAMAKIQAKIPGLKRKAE

Chain of AEA-DA lipid probe targets in Neuro2a cells (Mus musculus, UniProt Q9Z0V7) (Q9Z0V7 whole entry): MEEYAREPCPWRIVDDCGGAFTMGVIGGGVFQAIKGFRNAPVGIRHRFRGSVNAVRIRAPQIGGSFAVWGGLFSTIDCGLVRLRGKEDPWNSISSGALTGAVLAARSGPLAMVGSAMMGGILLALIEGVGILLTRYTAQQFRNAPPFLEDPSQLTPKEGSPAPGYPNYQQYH

Structure (SMILES)	SILAC ratio, Fech ([1]; competitor 25 μM)	SILAC ratio Nup93 ([2]; competitor 25 μM)	SILAC ratio Ociad1 ([3]; competitor 25 μM)	SILAC ratio, Timm17b ([4]; competitor 25 μM)	SILAC ratio, Rtn4 ([5]; competitor 25 μM)	further results
O=C(/C=C/c1cccnc1)NCCCCC1CCN(C(=O)c2ccccc2)CC1 [FK-866, reference compound]	20.0	1.2	1.1	1.2	1.1	–
CCCCC/C=C\C/C=C\C/C=C\C/C=C\CCCC(=O)NCCO [AEA, anandamide, reference compound]	–	–	–	–	–	SILAC ratio, Fech ([1]; competitor 200 μM): 1.3; SILAC ratio Nup93 ([2]; competitor 200 μM): 1.2; SILAC ratio Ociad1 ([3]; competitor 200 μM): 1.6; SILAC ratio, Timm17b ([4]; competitor 200 μM): 1.6; SILAC ratio, Rtn4 ([5]; competitor 200 μM): 1.8
CN1CCN(C(=O)c2c(-c3ccccc3)c3cc([N+](=O)[O-])ccc3n2C)CC1 [KML110, (1-Methyl-5-nitro-3-phenyl-1H-indol-2-yl)(4-methylpiperazin-1-yl)methanone]	2.2	1.4	1.3	1.8	1.4	–
C=CCN(C)CCCCCCOc1ccc(C(=O)c2ccc(Br)cc2)c(F)c1 [Ro 48-8071, reference compound]	1.4	0.9	1.0	2.8	1.0	–
CN1CCN(C(=O)c2[nH]c3ccc([N+](=O)[O-])cc3c2-c2ccccc2)CC1 [MJN228, (4-Methylpiperazin-1-yl)(5-nitro-3-phenyl-1H-indol-2-yl)methanone]	2.4	1.1	1.4	1.5	1.3	SILAC ratio, Fech ([1]; competitor 10 μM): 1.0; SILAC ratio, Fech ([1]; competitor 50 μM): 3.0; SILAC ratio, Fech ([1]; competitor 100 μM): 2.9; SILAC ratio Nup93 ([2]; competitor 10 μM): 0.9; SILAC ratio Nup93 ([2]; competitor 50 μM): 1.0; SILAC ratio Nup93 ([2]; competitor 100 μM): 1.1; SILAC ratio Ociad1 ([3]; competitor 10 μM): 1.1; SILAC ratio Ociad1 ([3]; competitor 50 μM): 1.1; SILAC ratio Ociad1 ([3]; competitor 100 μM): 1.5; SILAC ratio, Timm17b ([4]; competitor 10 μM): 1.3; SILAC ratio, Timm17b ([4]; competitor 50 μM): 2.2; SILAC ratio, Timm17b ([4]; competitor 100 μM): 3.6; SILAC ratio, Rtn4 ([5]; competitor 10 μM): 1.0; SILAC ratio, Rtn4 ([5]; competitor 50 μM): 1.2; SILAC ratio, Rtn4 ([5]; competitor 100 μM): 1.4
